Data from paper PMC3161871, “Heteroarylketones inhibit astroglial interleukin-6 expression via a STAT3/NF-κB signaling pathway” (Journal of Neuroinflammation, 2011).

Legend:
[1] = tested on: IL-6 release from U343 cells; test: Dose-dependent stimulation of IL-6 release by OSM in U343 cells (ELISA); assay type: cell-based, human; details: U343 cells treated 24 h with OSM, ELISA of conditioned medium
Description: (§1) The human glioma cell line U343 [34] was maintained in DMEM containing 10% fetal bovine serum and 60 μg/ml gentamycin (Invitrogen, Darmstadt, Germany) at 37°C in a 10% CO2 atmosphere.
Measurements of IL-6 in conditioned medium and murine plasma samples were done by means of human- or murine-specific IL-6 Cytoset kits (Invitrogen, Darmstadt, Germany) according to manufacturer's protocols.
The dose- and time-dependent stimulation of IL-6 expression by OSM in U343 cells is characterized in figure 1. To analyze dose dependence of IL-6 release, U343 cells were treated for 24 hours with various concentrations of OSM followed by measurement of IL-6 protein concentrations in the conditioned medium by a specific ELISA. […] Therefore, all further investigations were performed with 100 ng/ml OSM. The highest dose of 200 ng/ml OSM led to 30-fold increase of IL-6 accumulation in the conditioned media in comparison to vehicle-treated cells.
Figure 1 OSM induces dose- and time-dependent IL-6 expression in human U343 glioma cells. OSM treatment leads to dose-dependent IL-6 release (A). U343 cells were stimulated with different concentrations of OSM as indicated. After 24 hours the conditioned medium was analyzed by IL-6-specific ELISA. […] IL-6 mRNA expression was analyzed by qRT-PCR (dotted line, black triangles) and IL-6 protein release by ELISA (solid line, black squares). […]

[2] = tested on: IL-6 mRNA expression in U343 cells; test: OSM-induced IL-6 mRNA expression in U343 cells (qRT-PCR time course); assay type: cell-based, human; details: 100 ng/ml OSM
Description: as §1
Total RNA of cultured cells and homogenized mouse brain tissue samples was isolated using RNA isolation kit "NucleoSpin RNA II" from Macherey and Nagel. RNA quantity was measured by spectrophotometrical quantification (NanoDrop 2000, Peqlab, Erlangen, Germany). Total RNA (0.5 μg) was transcribed to cDNA using Superscript III and oligo-dT primer (Invitrogen, Darmstadt, Germany). Quantitative real-time PCR was performed with QuantiFast SYBR Green PCR Master mix (Qiagen, Hilden, Germany) using Rotorgene 3000 system (Corbett, Sydney, Australia). Gene expression was normalized to the expression of three reference genes glyceraldehyde 3-phosphate dehydrogenase (GAPDH), glucose-6-phosphate dehydrogenase (G6PDH) and hypoxanthine-guanine phosphoribosyltransferase (HPRT). Primers for PREP (5'-[…]-3'; 5'- […]-3') and IL-6 (5'-AAAGGACGTCACATTGCA-3'; 5'-[…]-3') were designed using the Primer3 Software (http://frodo.wi.mit.edu/). Data were analyzed by Rotorgene 3000 Software version 6.0 by comparative quantitation. The appropriate size of PCR products was confirmed by gel-electrophoresis stained with ethidium bromide.
To analyze the time-course of OSM-induced IL-6 expression, U343 cells were incubated with OSM for different periods of time as indicated in figure 1B. Amounts of IL-6 mRNA and protein were subsequently quantified by qRT-PCR and by ELISA, respectively. […] Significant induction of IL-6 protein was detected in the conditioned medium as early as 3 h post stimulation and reaching a maximum at 24 h.
To reveal whether bioactivity of HAK compounds is based on suppression of IL-6 protein biosynthesis or on interference with IL-6 mRNA expression OSM-treated U343 cells were incubated with 20 μM of compound HAK-2 for different periods of time. […] Therefore, it is very likely that the relevant molecular target of HAK compounds is involved in the OSM-induced signal transduction process not earlier than 6 h after onset of the stimulation.
Figure 4 Time course of OSM-induced IL-6 mRNA expression in U343 cells treated with compound HAK-2. […] U343 cells were stimulated with 100 ng/ml OSM and treated with 0.1% DMSO as solvent control (solid line, black triangle) or 20 μM HAK-2 (dashed line, white triangle). Samples were harvested at time points indicated to extract total RNA. IL-6 mRNA expression was analyzed by qRT-PCR. All data points are presented as mean ± SD, and were obtained from experiments carried out in quadruplicate. Statistical analysis were performed between control and HAK-2 samples from same time point. ns, not significant; ***p < 0.001.

## Oncostatin M [OSM, reference compound]
[1]
  EC50 of IL-6 release: 0.0705 ± 0.02268 µg/mL
[2]; 1 h post stimulation
  IL-6 mRNA induction, first peak: 6.5 fold
[2]; 16 h post stimulation
  IL-6 mRNA induction, second peak: 5.5 fold
